Measured values reported in PMC4837544, “Differential kinetic profiles and metabolism of primaquine enantiomers by human hepatocytes” (Malaria Journal, 2016).
Like-named read-outs stand apart in the source and are kept apart here. Each block holds one compound with its values, some of them ahead of it.

What was measured:
[1] = system: primary human hepatocytes; assay type: in vitro ADME; conditions: for enantiomer from which the metabolite is generated: 20 µM (+)-, (−)- and (±)-PQ; for amount detected: peak areas too minute to profile
Experimental: (§1) A separate control incubation of PQ and the two enantiomers in the cell-free hepatocyte media was performed to detect any non-enzymatically generated product. Metabolic reactions were halted by the addition of two volumes of ice-cold methanol containing 0.5 µg/mL 6-d3-methoxyprimaquine as an internal standard at predetermined time intervals. This mixture was vortexed and kept at −20 °C for at least 4 h before further analysis. Parallel incubation of substrate-free hepatocytes was performed. At each time point, aliquots were taken for cell viability measurement.
(§2) In preparation for HPLC–MS analysis, samples were centrifuged (10,000g, 10 min) and clear supernatants were dried using a Speedvac. The dried samples were re-suspended in 150 µL methanol, centrifuged and clear supernatants were transferred to HPLC sample vials for analysis.
(§3) The analytical method for simultaneous analysis of primaquine and its metabolites using the Ultra-High Performance Liquid Chromatography-Mass Spectrometry (UHPLC-QToF-MS), as earlier developed and reported was employed in this study. […] Details of the chromatography set-up are published.
Metabolites in the accurate mass data were found using the Metabolynx® software. The data were searched using predicted metabolite mass, mass defects, isotope, and fragmentation patterns. Each sample was subjected to data acquisition in full scan and data-dependent positive MS/MS, targeted MS/MS (ESI positive ionization mode) and high-resolution MS (HRMS) modes using the Waters ACQUITY™ XEVO QTOF Mass Spectrometer (Waters Corporation, Manchester, UK) connected to the UHPLC system via an electrospray ionization (ESI) interface. Metabolites were distinguished from artifacts and unrelated products by the presence of twin peaks with a mass difference of six, arising from the six labels in the 1:1 mixture of 12-C and 13-C-labelled PQ. The Identification of each metabolite was assisted by its HRMS data, which were used to calculate their elemental compositions. The full scan mass data were screened and filtered using Waters MetaboLynx XS software. The qualitative metabolite identification was performed using this software package.

[2] = parameters: method as in PMID 25637634; conditions: cited from earlier work
[3] = parameters: method as in PMID 25267666, PMID 25637634, PMID 23378100; conditions: after racemic PQ in mice, monkeys and humans ref 9, 15, 16; cited from earlier work
[4] = parameters: method as in PMID 24913163, PMID 25267666; conditions: beagle dogs and mouse models ref 8, 9; cited from earlier work
[5] = system: recombinant human CYP2D6; parameters: method as in PMID 25518709; conditions: cited from earlier work; for depletion of PQ enantiomers: 2 h incubation with recombinant human CYP2D6 ref 12
[6] = parameters: method as in PMID 24913163, PMID 25267666; conditions: beagle dogs, humanized mouse model and monkeys ref 8, 9; cited from earlier work
[7] = system: malaria; parameters: method as in PMID 24913163; conditions: suppressive and prophylactic assays, mice ref 8; cited from earlier work
[8] = system: primary human hepatocytes; test: Substrate depletion / intrinsic clearance of PQ and its enantiomers in cryopreserved human hepatocytes; conditions: for λ elimination rate constant / t½ (initial half-life) / substrate depleted: 20 µM; for λ elimination rate constant / substrate depleted: human hepatocytes 1 million cells/mL; for λ elimination rate constant: log-linear regression 0–60 min; for substrate depleted: by 2 h; for CLh,b (% hepatic blood flow): human Qh 20.7 mL/min/kg
Text: (§4) Pooled mixed-gender cryopreserved metabolism-qualified (CYP1A2, 2B6, 2C8, 2C9, 2C19, 2D6, 3A4, UGT2B7, UDP-glucuronosyltransferase) primary human hepatocytes (catalog number 454504) sourced from free donors (who were free of HIV, HBV, HCV and other liver-related diseases) were purchased from Corning Life Sciences (Woburn MA, USA) and stored in liquid nitrogen until use.
(§5) The cryopreserved hepatocytes were thawed and the cells were suspended in recovery medium (Corning Life Sciences). According to the supplier’s instructions, the suspended cells were centrifuged (300g, 5 min), the recovery medium discarded and the cells were re-suspended in the plating medium. Viability of the suspended hepatocytes was computationally determined based on cell counts using a Bio-Rad automated cell counter (Hercules, CA, USA). The cell density was adjusted to approximately 1X10^6 viable cells/mL in the plating media.
as §1, with “PQ, racemic and enantiomers, prepared as a 1:1 mixture of 12-C and 13-C-labelled compounds, were separately incubated at a final concentration of 20 µM in the cell-containing plating media using the 48-well plate at 37 °C under a humidified atmosphere of 95 % air and 5 % CO2 in an Eppendorf incubator (Hauppauge, NY, USA) attached with a shaker set at 75 rpm. A separate” for “A separate”
as §2, §3
(§6) Initial half-life (t^1/2) and elimination rate constants (λ = ln2/t^1/2) of PQ in hepatocyte incubates were calculated by log-linear regression of PQ concentrations profiled against time using data from the sampling points of the 20 µM PQ incubates. The intrinsic clearance in vitro (CLint in vitro) was calculated from λ and the cell density in the respective incubation (number of viable hepatocytes per mL at time zero) and scaled up to the intrinsic clearance in vivo (CLint in vivo) using the human liver mass (25.7 g/kg body mass) and the hepatocellularity (number of hepatocytes per gram of liver = 99 millions cells/g liver): CLint in vitro = λ/cell density. CLint in vivo = CLint in vitro × liver mass × heptocellularity. From CLint in vivo and the hepatic blood flow [Q (20.7 mL/min)/kg body mass], the hepatic metabolic blood clearance (CLh,b) was predicted using the well-stirred model: CLh,b = (CLint in vivo × Q)/(CLint in vivo + Q).
(§7) Since this estimation was for comparisons between enantiomers only, no corrections were made for the free fractions in vitro or in vivo—i.e. they were assumed to be identical.

[9] = system: Pneumocystis carinii; parameters: method as in PMID 24913163; conditions: mice ref 8; cited from earlier work
[10] = parameters: method as in PMID 25645856; conditions: mice, therapeutic doses ref 22; cited from earlier work
[11] = system: primary human hepatocytes; test: Hepatocyte viability time course by cell counts in presence and absence of PQ; assay type: cell-based
Experimental: Parallel incubation of substrate-free hepatocytes was performed.

[12] = Substrate depletion / intrinsic clearance of PQ and its enantiomers in cryopreserved human hepatocytes; conditions: both, human; for half-life at 20 µM: hepatocytes, t½ (initial half-life), human hepatocytes
Text: as §4, §5
as §1, with “PQ, racemic and enantiomers, prepared as a 1:1 mixture of 12-C and 13-C-labelled compounds, were separately incubated at a final concentration of 20 µM in the cell-containing plating media using the 48-well plate at 37 °C under a humidified atmosphere of 95 % air and 5 % CO2 in an Eppendorf incubator (Hauppauge, NY, USA) attached with a shaker set at 75 rpm. A separate” for “A separate”
as §2, §3, §6, §7

[13] = Control incubation in cell-free hepatocyte media (non-enzymatic products); assay type: in vitro ADME
Experimental: as §1, with “PQ, racemic and enantiomers, prepared as a 1:1 mixture of 12-C and 13-C-labelled compounds, were separately incubated at a final concentration of 20 µM in the cell-containing plating media using the 48-well plate at 37 °C under a humidified atmosphere of 95 % air and 5 % CO2 in an Eppendorf incubator (Hauppauge, NY, USA) attached with a shaker set at 75 rpm. A separate” for “A separate”

[14] = parameters: method as in PMID 24913163, PMID 25267666; conditions: monkeys, higher than therapeutic doses ref 8, 9; cited from earlier work
[15] = human hepatocytes, computed from λ
[16] = human hepatocytes, computed from λ (ln2/λ)

SMILES: COc1cc(N2C(=O)CCC2C)c2ncccc2c1 (stereo not drawn)
enantiomer from which the metabolite is generated [1]: preferentially generated from the (−)-PQ

SMILES: COc1cc(N[C@@H](C)CCCN)c2ncccc2c1 [(+)-PQ, (+)-(S)-primaquine]
acute toxicity [4]: higher acute toxicity than (−)-PQ
depletion of PQ enantiomers [5]: 50%
rate of metabolism compared to (−)-PQ ([5]; in vitro with recombinant human CYP2D6 ref 12): significantly higher
methaemoglobinemia [6]: higher methaemoglobinemia than (−)-PQ
anti-malarial activity compared with (−)-PQ [7]: more active than (−)-PQ
λ elimination rate constant [8]: 0.19 h⁻¹
t½ (initial half-life) [8, 15]: 3.62 h
t½ (initial half-life) [8, 16]: 3.62 h
substrate depleted [8]: 16%
rate of hepatic clearance of (+)-PQ relative to that of (−)-PQ ([8]; extrapolated in vivo human hepatic blood clearance, well-stirred liver model): 45%
CLh,b (% hepatic blood flow) [8]: 24 % hepatic blood flow
initial half-life compared with (−)-PQ ([8]; human hepatocytes): more than three times longer
Pneumocystis carinii pneumonia efficacy compared with (−)-PQ [9]: more active than (−)-PQ

SMILES: COc1cc(NC(C)CCCN)c2ncccc2c1 (racemic) [(±)-PQ, primaquine]
expected peak plasma concentrations ([2]; humans ref 15): < 2 µM
liver concentration relative to plasma [10]: about 20 times
direct hepatocellular toxicity (viable cell counts vs drug-free incubation) ([11]; 20 µM, up to 2 h): absence of PQ-induced direct hepatocellular toxicity
hepatocyte viability ([11]; at the 2 h termination time, drug-free and PQ-containing incubates similar): 88 % of the starting value
substrate depleted [8]: 30%
CLh,b (% hepatic blood flow) [8]: 36 % hepatic blood flow
Km [12]: 37 µM
k el at 20 µM [12]: 9.44e-05 s⁻¹
half-life at 20 µM ([12]; computed from λ): 2.03 h
half-life at 20 µM ([12]; computed from λ (ln2/λ)): 2.03 h

SMILES: COc1cc(NC(C)CCCO)c2ncccc2c1 (stereo not drawn) [PQ terminal alcohol, primaquine alcohol]
enantiomer from which the metabolite is generated [1]: preferentially generated from the (−)-PQ

SMILES: COc1cc(NC(C)CCCN)c2nc(O)ccc2c1 (stereo not drawn) [2-hydroxyprimaquine]
enantiomer from which the metabolite is generated [1]: exclusively generated from the (+)-PQ
amount detected [1]: trace amounts

SMILES: COc1cc(NC(C)CCCN)c2ncccc2c1 (single isomer, unassigned; (-)) [(−)-PQ, (−)-primaquine]
depletion of PQ enantiomers [5]: 30%
liver damage [14]: reversible liver damage
λ elimination rate constant [8]: 0.64 h⁻¹
t½ (initial half-life) [8, 15]: 1.08 h
t½ (initial half-life) [8, 16]: 1.09 h
substrate depleted [8]: 42%
CLh,b (% hepatic blood flow) [8]: 51 % hepatic blood flow
in vitro clearance compared with (+)-PQ ([8]; human hepatocytes): three times faster

SMILES: COc1cc(NC(C)CCCN)c2nccc(O)c2c1 (stereo not drawn) [4-hydroxyprimaquine]
enantiomer from which the metabolite is generated [1]: exclusively generated from the (+)-PQ
amount detected [1]: trace amounts

SMILES: COc1cc([N+]2=CCCC2C)c2ncccc2c1 (stereo not drawn)
enantiomer from which the metabolite is generated [1]: preferentially generated from the (−)-PQ

Further lines, with some results ahead:

enantiomer from which the metabolite is generated [1]: preferentially generated from the (−)-PQ
portion of metabolite generated within 30 min ([1]; 2 h incubation): 75%
SMILES: COc1cc(NC(C)CCC(=O)O)c2ncccc2c1 (stereo not drawn) [CPQ, carboxyprimaquine]
CPQ peak plasma concentration from (−)-PQ relative to from (+)-PQ ([2]; human, after racemic primaquine ref 15): 15 times
enantiomeric form in plasma [3]: predominantly the (−)-form

enantiomer from which the metabolite is generated [1]: preferentially generated from the (−)-PQ
SMILES: COc1cc(NC(C)CCCOC2OC(C(=O)O)C(O)C(O)C2O)c2ncccc2c1 [glucuronide of PQ alcohol, Primaquine alcohol-O-β-D-glucuronide]

enantiomer from which the metabolite is generated [1]: exclusively formed from (+)-PQ
enantiomer from which the metabolite is generated ([1]; listed as carbamoyl glucuronide of PQ): exclusively generated from (+)-PQ
SMILES: COc1cc(NC(C)CCCNC(=O)OC2OC(C(=O)O)C(O)C(O)C2O)c2ncccc2c1 [N-carbamoyl glucuronide of PQ, (S)-primaquine-N-carbamoyl-β-D-glucuronide]

enantiomer from which the metabolite is generated [1]: preferentially generated by (+)-PQ
enantiomer from which the metabolite is generated ([1]; listed as PQ conjugate formed by apparent N-glucosylation): preferentially formed with (+)-PQ
enantiomer from which the metabolite is generated ([1]; listed as glycosylated PQ): preferentially generated from (+)-PQ
time of peak formation ([1]; biphasic increase): ≤ 30 min
formation in cell-free media [13]: formed non-enzymatically
SMILES: COc1cc(NC(C)CCCNC2OC(CO)C(O)C(O)C2O)c2ncccc2c1 (stereo not drawn) [glycosylated conjugate of PQ]

enantiomer from which the metabolite is generated [1]: preferentially generated from the (−)-PQ
SMILES: COc1cc(NC(C)CCC(=O)OC2OC(C(=O)O)C(O)C(O)C2O)c2ncccc2c1 [CPQ glucuronide, Carboxyprimaquine-β-D-glucuronide]
